How the values were obtained:
[1] = system: blackgrass; test: Test A preemergence; format: in vivo, Alopecurus myosuroides
Method in brief: (§1)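 Greenhouse pot test, 10 days. Compound (non-phytotoxic solvent, surfactant) sprayed on soil at seeding or on seedlings at one- to two-leaf stage. Visual injury rated 0–100 against untreated plants.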

[2] = system: corn; test: Test A preemergence; format: in vivo, Zea mays
Method in brief: as §1

[3] = system: foxtail, giant; test: Test A preemergence; format: in vivo, Setaria faberi
Method in brief: as §1

[4] = system: goosegrass; test: Test A preemergence; format: in vivo, Eleusine indica
Method in brief: as §1

[5] = system: kochia; test: Test A preemergence; format: in vivo, Bassia scoparia
Method in brief: as §1

[6] = system: oat, wild; test: Test A preemergence; format: in vivo, Avena fatua
Method in brief: as §1

[7] = system: pigweed, palmer; test: Test A preemergence; format: in vivo, Amaranthus palmeri
Method in brief: as §1

[8] = system: ragweed; test: Test A preemergence; format: in vivo, Ambrosia artemisiifolia
Method in brief: as §1

[9] = system: ryegrass, Italian; test: Test A preemergence; format: in vivo, Lolium multiflorum
Method in brief: as §1

[10] = system: soybean; test: Test A preemergence; format: in vivo, Glycine max
Method in brief: as §1

[11] = system: wheat; test: Test A preemergence; format: in vivo, Triticum aestivum
Method in brief: as §1

[12] = system: blackgrass; test: Test A postemergence; format: in vivo, Alopecurus myosuroides
Method in brief: as §1

[13] = system: corn; test: Test A postemergence; format: in vivo, Zea mays
Method in brief: as §1

[14] = system: foxtail, giant; test: Test A postemergence; format: in vivo, Setaria faberi
Method in brief: as §1

[15] = system: goosegrass; test: Test A postemergence; format: in vivo, Eleusine indica
Method in brief: as §1

[16] = system: kochia; test: Test A postemergence; format: in vivo, Bassia scoparia
Method in brief: as §1

[17] = system: oat, wild; test: Test A postemergence; format: in vivo, Avena fatua
Method in brief: as §1

[18] = system: pigweed, palmer; test: Test A postemergence; format: in vivo, Amaranthus palmeri
Method in brief: as §1

[19] = system: ragweed; test: Test A postemergence; format: in vivo, Ambrosia artemisiifolia
Method in brief: as §1

[20] = system: ryegrass, Italian; test: Test A postemergence; format: in vivo, Lolium multiflorum
Method in brief: as §1

[21] = system: soybean; test: Test A postemergence; format: in vivo, Glycine max
Method in brief: as §1

[22] = system: wheat; test: Test A postemergence; format: in vivo, Triticum aestivum
Method in brief: as §1

[23] = system: galium; test: Test A postemergence; format: in vivo, Galium aparine
Method in brief: as §1

[24] = system: horseweed; test: Test A postemergence; format: in vivo, Erigeron canadensis
Method in brief: as §1

[25] = system: barnyardgrass; test: Test B flooded paddy test; format: in vivo, Echinochloa crus-galli; settings: 250 g ai/ha, Flood, 13 days, 0 to 100 scale (0 no effect, 100 complete control)
Method in brief: (§2)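 Percent weed or crop control, judged by eye on a 0–100 scale 13 days post-treatment, reflects compound added to a 3 cm flood maintained over 2-leaf plants in the greenhouse. Missing entries are marked with a dash.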

[26] = system: ducksalad; test: Test B flooded paddy test; format: in vivo, Heteranthera limosa; settings: 250 g ai/ha, Flood, 13 days, 0 to 100 scale (0 no effect, 100 complete control)
Method in brief: as §2

[27] = system: rice; test: Test B flooded paddy test; format: in vivo, Oryza sativa; settings: 250 g ai/ha, Flood, 13 days, 0 to 100 scale (0 no effect, 100 complete control)
Method in brief: as §2

[28] = system: sedge, umbrella; test: Test B flooded paddy test; format: in vivo, Cyperus difformis; settings: 250 g ai/ha, Flood, 13 days, 0 to 100 scale (0 no effect, 100 complete control)
Method in brief: as §2

[29] = 125 g ai/ha, visual injury after 10 days, 0 to 100 scale, 0 is no effect, 100 is complete control
[30] = 500 g ai/ha, 0 to 100 scale (0 no effect, 100 complete control), 10 days
[31] = 125 g ai/ha, postemergence, 10 days, 0 to 100 scale, 0 no effect, 100 complete control
[32] = 500 g ai/ha, postemergence, 10 days, visual injury, 0 to 100 scale (0 no effect, 100 complete control)
[33] = 125 g ai/ha, postemergence, 10 days, visual injury, 0 to 100 scale (0 no effect, 100 complete control)
[34] = 500 g ai/ha, Postemergence, 0 to 100 scale

In the case of `Cc1ccc(-n2cnc(C(C)(C)C)n2)cc1C(=O)N1C[C@H](C)Oc2c(C)cccc21` [Compound 100], the “Plant response rating, Blackgrass” value [1, 29] is reported as 60, the “Plant response rating, Blackgrass” value [1, 30] is reported as 70 and the “Plant response rating, Corn” value [2, 29] is reported as 0. For the same compound, the “Plant response rating, Corn” value [2, 30] was 40, the “Plant response rating, Foxtail, Giant” value [3, 29] was 100 and the “Plant response rating, Foxtail, Giant” value [3, 30] was 100. The “Plant response rating, Goosegrass” value [4, 29] was 100, the “Plant response rating, Goosegrass” value [4, 30] was 100 and the “Plant response rating, Kochia” value [5, 29] was 90. For the same compound, the “Plant response rating, Kochia” value [5, 30] was 100, the “Plant response rating, Oat, Wild” value [6, 29] was 40 and the “Plant response rating, Oat, Wild” value [6, 30] was 90. The “Plant response rating, Pigweed, Palmer” value [7, 29] was 100, the “Plant response rating, Pigweed, Palmer” value [7, 30] was 100 and the “Plant response rating, Ragweed” value [8, 29] was 80. The “Plant response rating, Ragweed” value [8, 30] was 100, the “Plant response rating, Ryegrass, Italian” value [9, 29] was 90 and the “Plant response rating, Ryegrass, Italian” value [9, 30] was 100. The “Plant response rating, Soybean” value [10, 29] was 80, the “Plant response rating, Soybean” value [10, 30] was 100 and the “Plant response rating, Wheat” value [11, 29] was 50. For the same compound, the “Plant response rating, Wheat” value [11, 30] was 60, the “Blackgrass plant response rating” value [12, 31] was 30 and the “Plant response rating, Blackgrass” value [12, 32] was 90. The “Corn plant response rating” value [13, 31] was 70, the “Plant response rating, Corn” value [13, 32] was 70 and the “Foxtail, Giant plant response rating” value [14, 31] was 50. The “Plant response rating, Foxtail, Giant” value [14, 32] was 90, the “Goosegrass plant response rating” value [15, 31] was 70 and the “Plant response rating, Goosegrass” value [15, 32] was 100. The “Kochia plant response rating” value [16, 31] was 80, the “Plant response rating, Kochia” value [16, 32] was 90 and the “Oat, Wild plant response rating” value [17, 31] was 30. The “Plant response rating, Oat, Wild” value [17, 32] was 70, the “Pigweed, Palmer plant response rating” value [18, 31] was 70 and the “Plant response rating, Pigweed, Palmer” value [18, 32] was 100. For the same compound, the “Ragweed plant response rating” value [19, 31] was 60, the “Plant response rating, Ragweed” value [19, 32] was 70 and the “Ryegrass, Italian plant response rating” value [20, 31] was 50. For the same compound, the “Plant response rating, Ryegrass, Italian” value [20, 32] was 80, the “Soybean plant response rating” value [21, 31] was 100 and the “Plant response rating, Soybean” value [21, 32] was 100. For the same compound, the “Wheat plant response rating” value [22, 31] was 30, the “Plant response rating, Wheat” value [22, 32] was 40 and the “Galium plant response rating” value [23, 31] was 80. The “Plant response rating, Galium” value [23, 32] was 100, the “Horseweed plant response rating” value [24, 31] was 40 and the “Plant response rating, Horseweed” value [24, 32] was 70. The “Plant response rating, Barnyardgrass” value [25] was 0, the “Plant response rating, Ducksalad” value [26] was 40 and the “Plant response rating, Rice” value [27] was 0. The “Plant response rating, Sedge, Umbrella” value [28] was 55.

In the case of `Cc1cccc2c1O[C@@H](C)CN2C(=O)c1cccc(-n2cncn2)c1F` [Compound 53], the “Plant response rating, Blackgrass” value [1, 29] is reported as 0, the “Plant response rating, Blackgrass” value [1, 30] is reported as 0 and the “Plant response rating, Corn” value [2, 29] is reported as 0. The “Plant response rating, Corn” value [2, 30] was 0, the “Plant response rating, Foxtail, Giant” value [3, 29] was 0 and the “Plant response rating, Foxtail, Giant” value [3, 30] was 0. For the same compound, the “Plant response rating, Goosegrass” value [4, 29] was 0, the “Plant response rating, Goosegrass” value [4, 30] was 40 and the “Plant response rating, Kochia” value [5, 29] was 0. For the same compound, the “Plant response rating, Kochia” value [5, 30] was 20, the “Plant response rating, Oat, Wild” value [6, 29] was 0 and the “Plant response rating, Oat, Wild” value [6, 30] was 0. The “Plant response rating, Pigweed, Palmer” value [7, 29] was 0, the “Plant response rating, Pigweed, Palmer” value [7, 30] was 0 and the “Plant response rating, Ragweed” value [8, 29] was 0. The “Plant response rating, Ragweed” value [8, 30] was 0, the “Plant response rating, Ryegrass, Italian” value [9, 29] was 30 and the “Plant response rating, Ryegrass, Italian” value [9, 30] was 70. For the same compound, the “Plant response rating, Soybean” value [10, 29] was 0, the “Plant response rating, Soybean” value [10, 30] was 0 and the “Plant response rating, Wheat” value [11, 29] was 0. For the same compound, the “Plant response rating, Wheat” value [11, 30] was 10, the “Plant response rating, Blackgrass” value [12, 33] was 0 and the “Plant response rating, Blackgrass” value [12, 34] was 20. The “Plant response rating, Corn” value [13, 33] was 0, the “Plant response rating, Corn” value [13, 34] was 0 and the “Plant response rating, Foxtail, Giant” value [14, 33] was 0. For the same compound, the “Plant response rating, Foxtail, Giant” value [14, 34] was 10, the “Plant response rating, Goosegrass” value [15, 33] was 20 and the “Plant response rating, Goosegrass” value [15, 34] was 40. The “Plant response rating, Kochia” value [16, 33] was 0, the “Plant response rating, Kochia” value [16, 34] was 10 and the “Plant response rating, Oat, Wild” value [17, 33] was 0. For the same compound, the “Plant response rating, Oat, Wild” value [17, 34] was 0, the “Plant response rating, Pigweed, Palmer” value [18, 33] was 0 and the “Plant response rating, Pigweed, Palmer” value [18, 34] was 30. The “Plant response rating, Ragweed” value [19, 33] was 0, the “Plant response rating, Ragweed” value [19, 34] was 0 and the “Plant response rating, Ryegrass, Italian” value [20, 33] was 0. The “Plant response rating, Ryegrass, Italian” value [20, 34] was 0, the “Plant response rating, Soybean” value [21, 33] was 20 and the “Plant response rating, Soybean” value [21, 34] was 50. For the same compound, the “Plant response rating, Wheat” value [22, 33] was 0, the “Plant response rating, Wheat” value [22, 34] was 0 and the “Plant response rating, Galium” value [23, 33] was 0. The “Plant response rating, Galium” value [23, 34] was 0, the “Plant response rating, Horseweed” value [24, 33] was 0 and the “Plant response rating, Horseweed” value [24, 34] was 0. The “Plant response rating, Barnyardgrass” value [25] was 0, the “Plant response rating, Ducksalad” value [26] was 0 and the “Plant response rating, Rice” value [27] was 0. The “Plant response rating, Sedge, Umbrella” value [28] was 0.
